Tests used:
Human fibroblasts [1] = experiment: Effect on biosynthesis of collagen (procollagen type (I) ELISA); assay type: cell-based; settings: 10^-4 M, 24 hours, relative to untreated control group = 100
Experimental: The effect of the hydroxy pyranone derivatives obtained in Examples 1˜6 on biosynthesis of collagen was compared with those of retinol and retinoic acid.
Human fibroblasts were seeded into a 24-well plate to a density of 10^5 cells/well and then cultured to 90% of growth. The plate was washed with PBS (phosphate buffered saline) and treated with test samples at a concentration of 10^−4M, and then incubated in a CO2 incubator for 24 hours. From its supernatant, procollagen production was measured with procollagen type (I) ELISA kit. The biosynthesis of collagen was evaluated as a relative value compared with that of the control group, which is not treated with sample and of which the value of biosyntheis of collagen was set to be 100.

[2] = test system: healthy females and males; experiment: Human patch test; assay type: in vivo; settings: 1% in patch base; for Average Response (n = 30): calculated by equation 4, below 1 = no irritation; for Number of the subjected showing response, 24 hours later, − (No visible response) / Number of the subjected showing response, 24 hours later, ± (Mild erythema) / Number of the subjected showing response, 24 hours later, + (Intense erythema) / Number of the subjected showing response, 24 hours later, + + (Intense erythema with edema) / Number of the subjected showing response, 24 hours later, + + + (Intense erythema with edema and vesicle): n = 30, 24 hours later; for Number of the subjected showing response, 24 hours later, − (No visible response) / Number of the subjected showing response, 48 hours later, − (No visible response): grade 0; for Number of the subjected showing response, 24 hours later, ± (Mild erythema) / Number of the subjected showing response, 48 hours later, ± (Mild erythema): grade 1; for Number of the subjected showing response, 24 hours later, + (Intense erythema) / Number of the subjected showing response, 48 hours later, + (Intense erythema): grade 2; for Number of the subjected showing response, 24 hours later, + + (Intense erythema with edema) / Number of the subjected showing response, 48 hours later, + + (Intense erythema with edema): grade 3; for Number of the subjected showing response, 24 hours later, + + + (Intense erythema with edema and vesicle) / Number of the subjected showing response, 48 hours later, + + + (Intense erythema with edema and vesicle): grade 4; for Number of the subjected showing response, 48 hours later, − (No visible response) / Number of the subjected showing response, 48 hours later, ± (Mild erythema) / Number of the subjected showing response, 48 hours later, + (Intense erythema) / Number of the subjected showing response, 48 hours later, + + (Intense erythema with edema) / Number of the subjected showing response, 48 hours later, + + + (Intense erythema with edema and vesicle): n = 30, 48 hours later
Experimental: This test was performed for thirty (30) healthy females and males aged on average 24.8 years and having no experience of hypersensitivity, according to method of CTFA Guideline (The Cosmetic, Toiletry and Fragrance Association. Inc. Washington, D.C., 20023, 1991). Each compound of Examples 1˜6 was dissolved in patch base having the composition of Table 6 to be 1% concentration as for test materials, and 20 μl of each test materials was dropped into a Finn chamber respectively, then attached to the forearm of the subject and fixed with a micropore tape. After 24 hours of patching, the patches were removed and the test sites were marked with marking pen. The observations of the test sites were made after 24 and 48 hours from the patching.
The average response of Table 8 was calculated by the following equation 4. [formula]

Human fibroblasts [3] = experiment: Collagenase-inhibiting effect (collagenase expression, ELISA kit); assay type: cell-based; settings: 10^-4 M, 24 hours, relative to untreated control group = 100
Experimental: The collagenase-inhibiting effect of hydroxy pyranone derivatives obtained in Examples 1˜6 was compared with those of retinol and retinoic acid.
Human fibroblasts were cultured in Dulbecco's Modified Eagle's Medium (DMEM) supplemented with 2.5% fetal bovine serum. The fibroblasts were seeded into a 96-well microtiter plate to a density of 5,000 cells/well, and then cultured to 70˜80% of growth. The plate was treated with test samples at a concentration of 10^−4M for 24 hours, then the cultured medium and the cells were raked up and recovered. From the recovered culture, collagenase production was measured with collagenase kit (Catalog #: RPN 2610) commercialized by Amersham Pharmacia Biotech. First, the recovered culture was added into a 96-well plate wherein primary collagenase antibodies were uniformly spread, and then antigen-antibody reaction was performed in an incubator for 3 hours. Later, secondary collagenase antibodies bonded with chromophore were added to the 96-well plate and reacted for 15 minutes. Then, color former was added thereto in order to induce development at the room temperature for 15 minutes, and 1M of sulfuric acid was added to stop the reaction. The reaction solution became yellow, and the color density depends on the progress of the reaction. The absorbance of the yellow 96-well plate was measured at 405 nm with absorptiometer. The expression of collagenase was calculated by the following equation 1. No sample was treated in the control group.
[Equation 1] The expression of collagenase (%)=[(Absorbance of test group)/(Absorbance of control group)]×100
The expression of collagenase was evaluated as a relative value compared with that of the control group of which the expression of collagenase was set to be 100.

rabbits = experiment: Primary skin irritation test on animals (Draize P.I.I.); assay type: in vivo; settings: 1% in 1,3-butylene glycol:ethanol=7:3, 0.5 ml, observed 24 and 72 hours later
Experimental: This test was performed for six (6) healthy male rabbits whose hairs on both sides of the backs were cut. The compounds of Examples 1˜6 were dissolved in 1,3-butylene glycol:ethanol=7:3, to obtain 1% concentration of test samples. 0.5 ml of each test samples were applied to right side area of 2.5 cm×2.5 cm. No sample was treated on left side as a control. 24 hours and 72 hours later, skin abnormality such as erythema, crust and edema was observed. Based on the score of skin response, skin irritation was estimated according to Draize's P.I.I. (Primary Irritation Index) and compared with that of retinoic acid.

white guinea pigs = experiment: Phototoxicity test; assay type: in vivo; settings: 1% (w/v) solution, UVA 15 J/cm^2, observed at 24, 48 and 72 hours; for Phototoxic index: below 0.5 = no phototoxicity
Experimental: This test was performed for ten (10) white guinea pigs whose hairs on both sides of the backs were cut, and fixed. On the back of the guinea pig, six (6) test sites measuring 2.5 cm×2.5 cm, three (3) per each side, were sectioned. Right sites were prepared as controls with no irradiation (UV non-irradiation sites) and left sites were irradiated (UV irradiation sites). Vehicle (1,3-butylene glycol:ethanol=7:3) was used as a negative control, and 0.1% concentration of 8-MOP (methoxypsoralene) was used as a positive control; and 1% (w/v) solutions of the compounds of Examples 1˜6 were applied to either site with an amount of […] for each site. 30 minutes later, right sites were shielded with aluminum foil and UVA(320˜380 nm) was irradiated at a distance of about 10 cm therefrom with Waldmann to the final energy of 15 J/cm^2. After 24, 48 and 72 hours elapsed, skin response of guinea pig was observed. Erythema and edema were scored from 0 to 4 points as shown in the Table 3, and skin response was evaluated by summing the scores. Maximum scores were selected when measured on each elapsed time, i.e. 24, 48 and 72 hours, and irritation index was calculated according to the following equation 2. Then, phototoxic index was calculated according to the following equation 3.
[Equation 2] Irritation index=(Maximum of erythema+Maximum of edema)/Number of animals [Equation 3] Phototoxic index=(Irritation index of UV irradiation site)−(Irritation index of UV non-irradiation site)

Row | Compound | Biosynthesis of collagen (%) (Human fibroblasts [1]) | Average Response (n = 30) [2] | Number of the subjected showing response, 24 hours later, − (No visible response) [2] | Number of the subjected showing response, 24 hours later, ± (Mild erythema) [2] | Number of the subjected showing response, 24 hours later, + (Intense erythema) [2] | Number of the subjected showing response, 24 hours later, + + (Intense erythema with edema) [2] | Number of the subjected showing response, 24 hours later, + + + (Intense erythema with edema and vesicle) [2] | Number of the subjected showing response, 48 hours later, − (No visible response) [2] | Number of the subjected showing response, 48 hours later, ± (Mild erythema) [2] | Number of the subjected showing response, 48 hours later, + (Intense erythema) [2] | Number of the subjected showing response, 48 hours later, + + (Intense erythema with edema) [2] | Number of the subjected showing response, 48 hours later, + + + (Intense erythema with edema and vesicle) [2] | Expression of collagenase (%) (Human fibroblasts [3]) | Evaluation (skin irritation) (rabbits) | P. I. I. (Primary Irritation Index) (rabbits) | Evaluation (phototoxicity) (white guinea pigs) | Phototoxic index (white guinea pigs)
1 | O=C(OCc1cc(=O)c(O)co1)c1ccc2c(c1)OCO2 [Compound of Ex. 1, (5-hydroxy-4-oxo-4H-pyran-2-yl)methyl 2H-benzo [3,4-d] 1,3-dioxolan-5-carboxylate] | 118% | 0.83 | 28 | 2 | 0 | 0 | 0 | 30 | 0 | 0 | 0 | 0 | 83% | No irritation | 0.375 | No phototoxicity | 0
2 | O=C(Oc1cc(=O)c(O)co1)c1ccc2c(c1)OCCO2 [Compound of Ex. 2, (5-hydroxy-4-oxo-4H-pyran-2-yl) 2H,3H-benzo [3,4-e] 1,4-dioxane-6-carboxylate] | 121% | 0.42 | 30 | 0 | 0 | 0 | 0 | 29 | 1 | 0 | 0 | 0 | 81% | No irritation | 0.345 | No phototoxicity | 0
3 | O=C(/C=C/c1ccc2c(c1)OCCO2)COc1cc(=O)c(O)co1 [Compound of Ex. 4, 2-((3E)-4-(2H,3H-benzo [3,4-e] 1,4-dioxan-6-yl)-2-oxobut-3-enyloxy)-5hydroxy-4-pyran-4-one] | 122% | 0.42 | 29 | 1 | 0 | 0 | 0 | 30 | 0 | 0 | 0 | 0 | 77% | No irritation | 0.350 | No phototoxicity | 0
4 | O=c1cc(/C=C/c2ccc3c(c2)OCO3)occ1O [Compound of Ex. 5, 2-((1E)-2-(2H,3H-benzo [3,4-d] 1,3-dioxolan-5-yl)vinyl)-5-hydroxy-4H-pyran-4-one] | 116% | 0.00 | 30 | 0 | 0 | 0 | 0 | 30 | 0 | 0 | 0 | 0 | 88% | No irritation | 0.375 | No phototoxicity | 0
5 | CC1=C(/C=C/C(C)=C/C=C/C(C)=C/C(=O)O)C(C)(C)CCC1 [Retinoic acid, reference compound] | 125% | – | – | – | – | – | – | – | – | – | – | – | 75% | Light irritation | 1.830 | – | –
6 | CC1=C(/C=C/C(C)=C/C=C/C(C)=C/CO)C(C)(C)CCC1 [Retinol, reference compound] | 120% | – | – | – | – | – | – | – | – | – | – | – | 82% | – | – | – | –

From patent US6916844B2, “Hydroxy pyranone derivative and preparation method thereof” (Amorepacific Corporation, priority 2002, dated 2005)
